As usually defined, the pEC50 is the EC50 on a negative log10 scale, so that one unit is a factor of ten.

The test concerns the target T1, human-derived receptor TLR7 (Homo sapiens, UniProt Q9NYK1).
T1 construct: host or cells: HEK-Blue hTLR7 cells (HEK293-derived reporter line)
T1 sequence (Q9NYK1 27-1049): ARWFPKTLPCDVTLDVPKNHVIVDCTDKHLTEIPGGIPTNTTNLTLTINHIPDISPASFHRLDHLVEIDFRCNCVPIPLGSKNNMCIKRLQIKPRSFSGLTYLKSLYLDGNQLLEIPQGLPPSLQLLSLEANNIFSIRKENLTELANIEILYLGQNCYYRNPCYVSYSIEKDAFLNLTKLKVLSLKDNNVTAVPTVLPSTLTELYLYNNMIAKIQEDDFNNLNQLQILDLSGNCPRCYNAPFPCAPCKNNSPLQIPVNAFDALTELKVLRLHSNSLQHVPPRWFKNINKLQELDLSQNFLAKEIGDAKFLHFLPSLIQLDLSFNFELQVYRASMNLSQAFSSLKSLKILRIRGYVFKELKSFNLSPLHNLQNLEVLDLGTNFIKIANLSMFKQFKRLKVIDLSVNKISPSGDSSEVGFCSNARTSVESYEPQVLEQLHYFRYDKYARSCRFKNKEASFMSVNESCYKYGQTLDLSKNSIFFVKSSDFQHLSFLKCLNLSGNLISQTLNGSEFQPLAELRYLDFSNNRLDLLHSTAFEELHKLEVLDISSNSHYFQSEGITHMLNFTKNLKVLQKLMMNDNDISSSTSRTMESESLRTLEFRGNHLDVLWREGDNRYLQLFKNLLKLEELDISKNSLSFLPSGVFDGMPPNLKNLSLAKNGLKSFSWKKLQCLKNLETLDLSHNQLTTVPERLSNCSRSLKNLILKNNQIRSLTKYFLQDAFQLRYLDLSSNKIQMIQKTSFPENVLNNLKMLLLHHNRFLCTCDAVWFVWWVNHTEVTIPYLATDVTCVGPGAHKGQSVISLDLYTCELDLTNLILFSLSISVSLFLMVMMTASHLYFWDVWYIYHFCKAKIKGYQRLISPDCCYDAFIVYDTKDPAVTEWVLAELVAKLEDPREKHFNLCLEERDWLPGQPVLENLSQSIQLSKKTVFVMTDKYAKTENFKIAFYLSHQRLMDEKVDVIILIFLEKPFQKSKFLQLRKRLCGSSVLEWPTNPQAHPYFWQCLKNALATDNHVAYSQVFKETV
The experiment in a line: Assay on agonistic activity for human-derived receptor TLR7 (HEK-Blue hTLR7 cells, HEK-Blue Detection Medium). The class given is cell-based. To be noted: 16 h incubation, absorbance at 655 nm, read-out: EC50. The method, then: HEK-Blue™ hTLR7 cells (InvivoGen, hkb-htlr7) were cultured in a DMEM complete medium (Gibco, 12100) containing 10% FBS (Invitrogen, 10099141), 1% P/S (Invitrogen, 15140122), 10 μg/mL Blasticidin (InvivoGen, ant-bl-1), 100 μg/mL Zeocin (InvivoGen, ant-zn-1), and 100 μg/mL Normocin (InvivoGen, ant-nr-1). The cells were cultured in an incubator at 37° C. with 5% CO2. When HEK-Blue™ hTLR7 cells reached a growth density of 70%-80%, cell passage was needed.
The agonistic activity for the human-derived receptor TLR7 by HEK-Blue™ hTLR7 cells was assayed by HEK-Blue™ Detection Medium (InvivoGen, hd-det2). First, a bag of HEK-Blue™ Detection Medium powder was dissolved in 50 mL of ultra-pure sterile water for complete dissolution, and then the dissolved medium was filtered into a new 50 mL centrifuge tube through a 0.22 μm filter. Finally, antibiotics were added into the filtered detection medium until the final concentration was 1% for P/S and 100 μg/mL for Normocin. HEK-Blue™ Detection Medium was pre-heated to 37° C. in advance on the day of the assay on the activity for the TLR7 receptor, and the temperature was always maintained at 37° C.
The compound powder was dissolved in 100% DMSO (Sigma, D2650-100ML) to obtain a 10 mM stock solution, and the compound was completely dissolved by shaking with an oscillator. The stock solution of the compound was subjected to a 5-fold dilution to 2 mM with 100% DMSO. This was followed by a 3-fold serial dilution for a total of 8 concentration gradients. Then, each of the concentration gradients was subjected to a 20-fold dilution to 100 μM, 33.3 μM, 11.1 μM, 3.7 μM, 1.23 μM, […], 0.114 μM, and 0.05 μM using HEK-Blue™ Detection Medium. 20 μL of each of the dilutions was added to a 96-well cell culture plate (Corning, 3599).
On the day of the assay on the agonistic activity for the human-detived receptor TLR7, HEK-Blue™ hTLR7 cells has a growth density of 70%-80%, and the cell medium was removed. 1 mL of cell dissociation buffer (Gibco, 13151-014) was added to each 100 mm cell culture dish, and the cells were incubated in an incubator at 37° C. for 5 min. The cells were pipetted using a DMEM cell medium to obtain a single cell suspension, which was then centrifuged at 1000 rpm for 10 min to collect the cell pellet. The cell pellet was resuspended with HEK-Blue™ Detection Medium pre heated to 37° C. The cells were counted and diluted to 220,000 cells/mL. Finally, 180 μL of cell suspension (40,000 cells/well) was added to each well of the 96-well cell culture plate to which the compound had been added, and the cell suspension was mixed with the compound using a pipettor. Final concentrations of the compound were 10 μM, 3.3 μM, 1.1 μM, 0.37 μM, 0.12 μM, 0.04 μM, 0.01 μM, and 0.005 μM. After incubation in an incubator at 37° C. for 16 h, the absorbance was read at 655 nm using an M5e microplate reader (MD, USA).
The EC50 of the compound was calculated using the software GraphPad Prism (GraphPad Software, USA). The background reading of the detection culture was subtracted from the absorbance readings at 655 nm of all wells of the 96-well plate, the ratio of each well to the negative control well (the well without the compound) was calculated, and then the percentage of the ratio of each well to the positive control well (the well treated with 10 μM positive compound), i.e., the percentage of activity, was calculated. Finally, the sigmoidal dose-response (variable slope) curve between the percentage of activity and the concentration of the compound was calculated using the software GraphPad Prism to calculate the EC50 of the compound. […]

pEC50: −log10 of the molar value.

Turning to `CCCCSc1nc2c(N)nc3ccccc3c2n1Cc1ccc(CN2CCCC2)cc1` [Example 161], the negative logarithm of the EC50 (pEC50) was 7.00 to 7.30.
Then `C=CCCSc1nc2c(N)nc3ccccc3c2n1Cc1ccc(CN2CCCC2)cc1` [Example 165], with 7.00 to 7.30; and `CCN(CC)Cc1ccc(Cn2c(=O)[nH]c3c(N)nc4ccccc4c32)cc1C` [Example 113], with 7.00 to 7.30.
As for `C=CCSc1nc2c(N)nc3ccccc3c2n1Cc1ccc(CN2CC[C@@H](F)C2)cc1` [Example 211], the pEC50 is 7.00 to 7.30.
Regarding `CSc1nc2c(N)nc3ccccc3c2n1Cc1ccc(CN2CC(O)C2)cc1` [Example 206], the pEC50 is 7.00 to 7.30.
For the compound `Nc1nc2ccccc2c2c1nc(SCC1CC1)n2Cc1ccc(CN2CCCC2)cc1` [Example 163], the pEC50 is greater than 7.30.
Regarding `Nc1nc2ccccc2c2c1nc(SCCF)n2Cc1ccc(CN2CCCC2)cc1` [Example 178], the pEC50 was 7.00 to 7.30.
Take `C=CCSc1nc2c(N)nc3ccccc3c2n1Cc1ccc(CN2CCNCC2)cc1` [Example 215]: the pEC50 was greater than 7.30.
On to `COc1cc(C2CCN(C)CC2)ccc1Cn1c(SC)nc2c(N)nc3ccccc3c21` [Example 246], for which the pEC50 was 7.00 to 7.30.
Consider `CCSc1nc2c(N)nc3ccccc3c2n1Cc1ccc(CNC(C)C)cc1` [Example 191], for which the pEC50 was greater than 7.30.
Then `COc1cc(CN2CCN(C)CC2)ccc1Cn1c(SC)nc2c(N)nc3ccccc3c21` [Example 247], with 7.00 to 7.30.
Then `CCSc1nc2c(N)nc3ccccc3c2n1Cc1ccc(CN2CCNCC2)cc1` [Example 214], with 7.00 to 7.30.
Then `COc1cc(OCCN(C)C)ccc1Cn1c(SC)nc2c(N)nc3ccccc3c21` [Example 248], with 7.00 to 7.30.
For `COc1cc(CN2CCNCC2)ccc1Cn1c(SC)nc2c(N)nc3ccccc3c21` [Example 238], the pEC50 is 7.00 to 7.30.
As to `COc1cc(CN2CCCC2)ccc1Cn1c(SC)nc2c(N)nc3ccccc3c21` [Example 233], the pEC50 was greater than 7.30.
`C=CCSc1nc2c(N)nc3ccccc3c2n1Cc1ccc(CN2CC[C@H](F)C2)cc1` [Example 210]: the pEC50 was 7.00 to 7.30.
As for `CCCSc1nc2c(N)nc3ccccc3c2n1Cc1ccc(CN2CCCC2)cc1` [Example 159], the pEC50 was greater than 7.30.
Then `COCSc1nc2c(N)nc3ccccc3c2n1Cc1ccc(CN2CCCC2)cc1` [Example 157], with greater than 7.30.
As for `CCCCOc1nc(N)c2[nH]c(=O)n(Cc3ccc(CN4CCC(O)C4)s3)c2n1` (stereo not drawn) [Example 44, 6-amino-2-butoxy-9-((5-((3-hydroxypyrrolidin-1-yl)methyl)thien-2-yl)methyl)-7,9-dihydro-8H-purin-8-one], the pEC50 is greater than 7.30.
Then `CCCCOc1nc(N)c2c(n1)CN(Cc1ccc(C(=O)N3CCCC3)cc1)C(=O)N2` [Example 50, 8-amino-6-butoxy-3-(4-(pyrrolidin-1-ylcarbonyl)benzyl)-3,4-dihydropyrimido[5,4-d]pyrimidin-2(1H)-one], with greater than 7.30; and `CCSc1nc2c(N)nc3ccccc3c2n1Cc1ccc(CN2CC[C@H](O)C2)cc1` [Example 209], with 7.00 to 7.30.
Take `CSc1nc2c(N)nc3ccccc3c2n1Cc1ccc(CN(C)C)cc1` [Example 189]: the negative-log EC50 (pEC50) was 7.00 to 7.30.
Regarding `CCCCOc1nc(N)c2[nH]c(=O)n(Cc3cccc(CN4CCCC4=O)c3)c2n1` [Example 42, 6-amino-2-butoxy-9-(3-((2-oxopyrrolidin-1-yl)methyl)benzyl)-7,9-dihydro-8H-purin-8-one], the pEC50 is greater than 7.30.
Then `COc1cc(CN2CC[C@H](O)C2)ccc1Cn1c(SC)nc2c(N)nc3ccccc3c21` [Example 245], with 7.00 to 7.30; and `CSc1nc2c(N)nc3ccccc3c2n1Cc1ccc(N2CCN(C)CC2)cc1` [Example 212], with greater than 7.30.
Then `CCSc1nc2c(N)nc3ccccc3c2n1Cc1ccc(CN2CC(O)C2)cc1` [Example 207], with 7.00 to 7.30.
Consider `COc1cc(CN2C[C@H]3CN(C)C[C@H]3C2)ccc1Cn1c(SC)nc2c(N)nc3ccccc3c21` [Example 239], for which the negative logarithm of the EC50 (pEC50) is 7.00 to 7.30.

For the origin of these results see patent US20240150346A1, “CLASS OF HETEROAROMATIC COMPOUND, PREPARATION METHOD THEREFOR AND USE THEREOF” (INNOVSTONE THERAPEUTICS LIMITED, priority 2021, published 2024).
